In PMC9139979, “Features of ZED1227: The First-In-Class Tissue Transglutaminase Inhibitor Undergoing Clinical Evaluation for the Treatment of Celiac Disease” (Cells, 2022):
Values joined by “and” are separate entries in the source; they are usually repeats but may differ in a detail not shown here. Equal entries are not always repeated. “Also recorded” adds a separate entry of the source. Where two headings read alike, the source gives them in different places.

Tests used:
[1] = Solubility in PBS (pH 7.4) and diluted HCl (pH 1.1) by HPLC; type: physicochemical
[2] = tested on: Caco-2 cells; experiment: EZ4U viability assay, Caco-2; type: cell-based; details: up to 1,000 μM, 48 h
Procedure: (§1) Cytotoxicological analysis of ZED1227 was performed using Huh7 (human liver carcinoma, CLS Cell Lines Service GmbH, Eppelheim, Germany) and Caco-2 cells (human epithelial colorectal adenocarcinoma, Sigma Aldrich, Taufkirchen, Germany) with respect to the effect on proliferation and viability, according to the assay protocols provided by the manufacturers of the respective kits. The Cell Proliferation ELISA (BrdU, colorimetric) was purchased from Roche (Mannheim, Germany), whereas the Cell Proliferation and Cytotoxicity Assay EZ4U was purchased from Biomedica (Vienna, Austria). […]
(§2) The EZ4U assay (determination of viability) was performed by incubating the cells with ZED1227 working solution (1% DMSO in culture medium) up to a concentration of 1,000 μM for 48 h, followed by addition of a yellow tetrazolium reagent (not further specified) into the culture medium. The non-toxic tetrazolium salts were reduced to red-colored formazan which was quantified spectrophotometrically. […]

[3] = target: T1, hTG2 (Homo sapiens, UniProt P21980); experiment: Fluorescent transamidation assay (DCC-assay), hTG2; type: biochemical; details: recombinant human TG2, transamidation assay
T1 construct: purchased Zedira T022
T1 sequence (P21980 1-687): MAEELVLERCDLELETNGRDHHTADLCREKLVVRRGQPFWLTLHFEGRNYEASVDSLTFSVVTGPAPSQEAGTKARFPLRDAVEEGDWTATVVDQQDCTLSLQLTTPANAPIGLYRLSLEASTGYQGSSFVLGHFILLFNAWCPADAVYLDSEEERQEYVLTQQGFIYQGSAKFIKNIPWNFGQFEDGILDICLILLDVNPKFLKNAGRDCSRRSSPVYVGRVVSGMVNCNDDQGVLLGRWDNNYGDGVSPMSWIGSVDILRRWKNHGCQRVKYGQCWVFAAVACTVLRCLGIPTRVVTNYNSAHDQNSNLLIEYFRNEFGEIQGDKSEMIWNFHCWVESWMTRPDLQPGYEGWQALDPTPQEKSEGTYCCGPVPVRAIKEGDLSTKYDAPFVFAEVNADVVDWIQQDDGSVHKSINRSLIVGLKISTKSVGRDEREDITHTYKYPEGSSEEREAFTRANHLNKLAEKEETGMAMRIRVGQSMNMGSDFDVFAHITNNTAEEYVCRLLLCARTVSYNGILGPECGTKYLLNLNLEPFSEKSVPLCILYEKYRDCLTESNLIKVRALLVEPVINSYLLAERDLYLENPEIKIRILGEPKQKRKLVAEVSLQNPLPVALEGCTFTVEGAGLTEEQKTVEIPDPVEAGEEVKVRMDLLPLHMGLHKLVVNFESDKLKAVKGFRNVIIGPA
Procedure: Inhibition data were determined using the fluorescent transamidation assay (dansylcadaverine incorporation into glutamine-donor substrate N,N-dimethyl casein, DCC-assay). Briefly, to 15 μL of ZED1227 solution (dissolved and serial diluted in 2% (v/v) DMSO/assay buffer), 285 μL assay buffer [47.5 mM tris(hydroxymethyl)aminomethane, 9.5 mM CaCl2, 9.5 mM glutathione, 2.4% (v/v) glycerol, 190 mM NaCl, pH 8.0] containing dansylcadaverine (15.9 μM), N,N-dimethyl casein (3.8 μM) and the indicated recombinant transglutaminase enzyme [0.95 μg/mL hTG1 (T035), 0.81 μg/mL hTG2 (T022), 0.83 μg/mL hTG6 (T021), all from Zedira] were added, mixed and the kinetic measurement started immediately. In the case of hFXIII-A2 (0.83 μg/mL, T027, Zedira), the assay buffer contained human α-thrombin (5.2 × 10^−3 U/μL, T056, Zedira). The mixture was incubated for 20 min at room temperature to activate FXIII. In the case of hTG3a (0.81 μg/mL, T013, Zedira), full enzymatic activity was obtained by incubation for 80 min at 37 °C in assay buffer before addition of the inhibitor and start of the kinetics.
Fluorescence emission was continuously monitored for 30 min at λem = 500 nm (λex = 330 nm) and 37 °C using a CLARIOstar fluorescence plate reader (BMG Labtech, Ortenberg, Germany). All measurements were performed in triplicate. The respective IC50 (and IC90 for TG2) values were calculated by non-linear regression using the MARS software package (BMG Labtech). An irreversible-acting inhibitor, such as ZED1227, should, correctly, be characterized by the second-order rate constant k2nd, as detailed by Keillor [46]. However, such data are rather abstract and difficult to comprehend.
To facilitate comparability during lead structure optimization and to roughly estimate concentrations needed at the target site, the apparent IC50 values (calculated by four-parameter non-linear fit by MARS software) for irreversible inhibitors are more instructive and are therefore reported. Further, we report the potency of commercially available reference inhibitors Z006 (“Z-DON”), Z013 (ZED754), and T101 (all Zedira). To gain deeper mechanistic insight, we discuss the second-order rate constants (k2nd) published for Z006 and ZED754 in relation to their respective IC50 values.

[4] = logD by shake flask method (octanol/PBS pH 7.4); type: physicochemical
Procedure: The logD value (distribution coefficient) of the compound was determined by means of the shake flask method, measuring the distribution of the solute in octanol and phosphate-buffered saline (PBS, pH 7.4). The concentration of ZED1227 in the immiscible solvents was determined by HPLC (vide supra). The stability in PBS (pH 7.4 or acidified to pH 5.0), in artificial gastric, and intestinal fluid was calculated as the percentage of residual parent compound after incubation for 24 h at 37 °C, using an initial concentration of 100 μM.

[5] = tested on: Huh7 cells; experiment: EZ4U viability assay, Huh7; type: cell-based; details: up to 1,000 μM, 48 h
Procedure: as §1, §2

Structure (SMILES): CCC(CC)CNC(=O)Cn1cccc(NC(=O)[C@H](CC/C=C/C(=O)OC)NC(=O)c2cncn2C)c1=O [ZED1227, (S,E)-Methyl 7-(1-(2-(2-ethylbutylamino)-2-oxoethyl)-2-oxo-1,2-dihydropyridin-3-ylamino)-6-(1-methyl-1H-imidazole-5-carboxamido)-7-oxohept-2-enoate]
- solubility ([1]; phosphate-buffered saline, aqueous buffer, PBS pH 7.4, read-out: Solubility at pH 7.4): 100 µM and 50 µg/mL
- solubility ([1]; simulated gastric fluid, diluted HCl pH 1.1, read-out: Solubility at pH 1.1): 48900 µM and 25900 µg/mL
- Cytotoxicity: Viability, Caco-2 cells [2]: not cytotoxic up to 1,000 μM; also recorded: no effect up to 1,000 μM no effect up to 1,000 μM no effect up to 1,000 μM no effect up to 1,000 μM
- IC90 [3]: 0.3 µM
- IC50 ([3]; apparent IC50 of irreversible inhibitor, read-out: App. IC50 hTG2): 0.053 µM
- logD [4]: 2
- Cytotoxicity: Viability, Huh7 cells [5]: not cytotoxic up to 1,000 μM; also recorded: no effect up to 1,000 μM no effect up to 1,000 μM no effect up to 1,000 μM no effect up to 1,000 μM
